Legend:
Format in all cases: in vivo
[1] = test system: redroot pigweed (Amaranthus retroflexus); test: Test G Post-Emergence Protocol
Procedure: (§1) Seeds of corn (Zea mays), giant foxtail (Setaria faberi), barnyardgrass (Echinochloa crus-galli), ivy-leaved morning glory (Ipomoea hederacea), redroot pigweed (Amaranthus retroflexus) and velvetleaf (Abutilon theophrasti) were sown in standard soil in pots. After cultivation for 8 days under controlled conditions in a glasshouse (at 24/16° C., day/night; 14 hours light; 65% humidity), the plants were sprayed with an aqueous spray solution derived from the formulation of the technical active ingredient in acetone/water (50:50) solution containing 0.5% Tween 20 (polyoxyethylene sorbitan monolaurate, CAS RN 9005-64-5) to give a final dose of 15.625, 62.5 or 250 g/ha of test compound.
(§2) The test plants were then grown on under controlled conditions in a glasshouse (at 24/16° C., day/night; 14 hours light; 65% humidity) and watered twice daily. After 13 days the test was evaluated (100=total damage to plant; 0=no damage to plant). A dash (-) means no test result.

[2] = test system: giant foxtail (Setaria faberi); test: Test G Post-Emergence Protocol
Procedure: as §1, §2

[3] = test system: ivy-leaved morning glory (Ipomoea hederacea); test: Test G Post-Emergence Protocol
Procedure: as §1, §2

[4] = test system: barnyardgrass (Echinochloa crus-galli); test: Test G Post-Emergence Protocol
Procedure: as §1, §2

[5] = test system: velvetleaf (Abutilon theophrasti); test: Test G Post-Emergence Protocol
Procedure: as §1, §2

corn (Zea mays) [6] = test: Test G Post-Emergence Protocol
Procedure: as §1, §2

[7] = test system: redroot pigweed (Amaranthus retroflexus); test: Test G Pre-Emergence Protocol; details: evaluated after 13 days
Procedure: as §1, with “one day” for “8 days”
as §2

[8] = test system: giant foxtail (Setaria faberi); test: Test G Pre-Emergence Protocol; details: evaluated after 13 days
Procedure: as §1, with “one day” for “8 days”
as §2

[9] = test system: ivy-leaved morning glory (Ipomoea hederacea); test: Test G Pre-Emergence Protocol; details: evaluated after 13 days; for Morningglory, Ivy-leaved damage rating (100=total damage to plant; 0=no damage to plant): 250 g ai/ha
Procedure: as §1, with “one day” for “8 days”
as §2

[10] = test system: barnyardgrass (Echinochloa crus-galli); test: Test G Pre-Emergence Protocol; details: evaluated after 13 days
Procedure: as §1, with “one day” for “8 days”
as §2

[11] = test system: velvetleaf (Abutilon theophrasti); test: Test G Pre-Emergence Protocol; details: evaluated after 13 days
Procedure: as §1, with “one day” for “8 days”
as §2

corn (Zea mays) [12] = test: Test G Pre-Emergence Protocol; details: evaluated after 13 days
Procedure: as §1, with “one day” for “8 days”
as §2

[13] = 15.625 g ai/ha, evaluated after 13 days (100=total damage to plant; 0=no damage to plant)
[14] = 62.5 g ai/ha, evaluated after 13 days
[15] = 250 g ai/ha, evaluated after 13 days
[16] = 62.5 g ai/ha, 100=total damage to plant, 0=no damage to plant
[17] = 62.5 g ai/ha, evaluated after 13 days, 100=total damage to plant, 0=no damage to plant
[18] = 250 g ai/ha, evaluated after 13 days, 100=total damage to plant, 0=no damage to plant

CN1CC(c2ccc(C(F)(F)F)cc2)C(C(=O)Nc2cccc(F)c2[N+](=O)[O-])C1=O (racemic) [Compound 1546]
Pigweed, Redroot damage rating [1, 13]: 30 | Pigweed, Redroot damage rating (100=total damage to plant; 0=no damage to plant) [1, 14]: 60 | damage to plant, Pigweed, Redroot (100=total damage to plant; 0=no damage to plant) [1, 15]: 60 | Foxtail, Giant damage rating [2, 13]: 60 | Foxtail, Giant damage rating (100=total damage to plant; 0=no damage to plant) [2, 14]: 80 | damage to plant, Foxtail, Giant (100=total damage to plant; 0=no damage to plant) [2, 15]: 80 | Morningglory, Ivy-leaved damage rating [3, 13]: 0 | Morningglory, Ivy-leaved damage rating (100=total damage to plant; 0=no damage to plant) [3, 14]: 20 | damage to plant, Morningglory, Ivy-leaved (100=total damage to plant; 0=no damage to plant) [3, 15]: 30 | Barnyardgrass damage rating [4, 13]: 40 | Barnyardgrass damage rating (100=total damage to plant; 0=no damage to plant) [4, 14]: 70 | damage to plant, Barnyardgrass (100=total damage to plant; 0=no damage to plant) [4, 15]: 80 | Velvetleaf damage rating [5, 13]: 0 | Velvetleaf damage rating (100=total damage to plant; 0=no damage to plant) [5, 14]: 0 | damage to plant, Velvetleaf (100=total damage to plant; 0=no damage to plant) [5, 15]: 10 | Corn damage rating (corn (Zea mays) [6]; [13]): 0 | Corn damage rating (100=total damage to plant; 0=no damage to plant) (corn (Zea mays) [6]; [14]): 20 | damage to plant, Corn (100=total damage to plant; 0=no damage to plant) (corn (Zea mays) [6]; [15]): 50 | Pigweed, Redroot damage rating (100=total damage to plant; 0=no damage to plant) ([7]; 15.625 g ai/ha): 0 | plant damage rating, Pigweed, Redroot [7, 16]: 30 | Pigweed, Redroot damage rating (100=total damage to plant; 0=no damage to plant) ([7]; 250 g ai/ha): 70 | Foxtail, Giant damage rating (100=total damage to plant; 0=no damage to plant) ([8]; 15.625 g ai/ha): 60 | plant damage rating, Foxtail, Giant [8, 16]: 80 | Foxtail, Giant damage rating (100=total damage to plant; 0=no damage to plant) ([8]; 250 g ai/ha): 90 | Morning-glory, Ivy-leaved damage rating (100=total damage to plant; 0=no damage to plant) ([9]; 15.625 g ai/ha): 0 | plant damage rating, Morningglory, Ivy-leaved [9, 16]: 20 | Morningglory, Ivy-leaved damage rating (100=total damage to plant; 0=no damage to plant) [9]: 40 | Barnyardgrass damage rating (100=total damage to plant; 0=no damage to plant) ([10]; 15.625 g ai/ha): 0 | plant damage rating, Barnyardgrass [10, 16]: 20 | Barnyardgrass damage rating (100=total damage to plant; 0=no damage to plant) ([10]; 250 g ai/ha): 80 | Velvetleaf damage rating (100=total damage to plant; 0=no damage to plant) ([11]; 15.625 g ai/ha): 0 | plant damage rating, Velvetleaf [11, 16]: 0 | Velvetleaf damage rating (100=total damage to plant; 0=no damage to plant) ([11]; 250 g ai/ha): 0 | Corn damage rating (100=total damage to plant; 0=no damage to plant) (corn (Zea mays) [12]; 15.625 g ai/ha): 0 | plant damage rating, Corn (corn (Zea mays) [12]; [16]): 10 | Corn damage rating (100=total damage to plant; 0=no damage to plant) (corn (Zea mays) [12]; 250 g ai/ha): 40

CN1C[C@@H](c2ccc(C(F)(F)F)cc2)[C@H](C(=O)Nc2cccnc2F)C1=O (racemic) [Compound 1653]
Pigweed, Redroot damage rating [1, 17]: 70 | Pigweed, Redroot damage rating [1, 18]: 80 | pest or weed control at 15.625 g/ha ([1]; Amaranthus retroflexus, post-emergence, 312 h, 15.625 g ai/ha, evaluated after 13 days (100=total damage to plant; 0=no damage to plant), read-out: Pigweed, Redroot damage rating): 0% | Foxtail, Giant damage rating [2, 13]: 60 | Foxtail, Giant damage rating [2, 17]: 80 | Foxtail, Giant damage rating [2, 18]: 80 | Morningglory, Ivy-leaved damage rating [3, 13]: 10 | Morningglory, Ivy-leaved damage rating [3, 17]: 30 | Morningglory, Ivy-leaved damage rating [3, 18]: 40 | Barnyardgrass damage rating [4, 13]: 30 | Barnyardgrass damage rating [4, 17]: 60 | Barnyardgrass damage rating [4, 18]: 80 | Velvetleaf damage rating [5, 17]: 40 | Velvetleaf damage rating [5, 18]: 50 | pest or weed control at 15.625 g/ha ([5]; Abutilon theophrasti, post-emergence, 312 h, 15.625 g ai/ha, evaluated after 13 days (100=total damage to plant; 0=no damage to plant), read-out: Velvetleaf damage rating): 0% | Corn damage rating (corn (Zea mays) [6]; [17]): 30 | Corn damage rating (corn (Zea mays) [6]; [18]): 70 | plant injury at 15.625 g/ha (corn (Zea mays) [6]; Zea mays, post-emergence, 312 h, 15.625 g ai/ha, evaluated after 13 days (100=total damage to plant; 0=no damage to plant), read-out: Corn damage rating): 0% | Pigweed, Redroot damage rating [7, 16]: 40 | Pigweed, Redroot damage rating (100=total damage to plant; 0=no damage to plant) ([7]; 250 g ai/ha): 80 | pest or weed control at 15.625 g/ha ([7]; Amaranthus retroflexus, pre-emergence, 312 h, 15.625 g ai/ha, read-out: Pigweed, Redroot damage rating (100=total damage to plant; 0=no damage to plant)): 0% | Foxtail, Giant damage rating (100=total damage to plant; 0=no damage to plant) ([8]; 15.625 g ai/ha): 60 | Foxtail, Giant damage rating [8, 16]: 90 | Foxtail, Giant damage rating (100=total damage to plant; 0=no damage to plant) ([8]; 250 g ai/ha): 90 | Morningglory, Ivy-leaved damage rating (100=total damage to plant; 0=no damage to plant) [9]: 20 | pest or weed control at 15.625 g/ha ([9]; Ipomoea, pre-emergence, 312 h, 15.625 g ai/ha, read-out: Morningglory, Ivy-leaved damage rating (100=total damage to plant; 0=no damage to plant)): 0% | pest or weed control at 62.5 g/ha ([9]; Ipomoea, pre-emergence, 312 h, 62.5 g ai/ha, 100=total damage to plant, 0=no damage to plant, read-out: Morningglory, Ivy-leaved damage rating): 0% | Barnyardgrass damage rating [10, 16]: 80 | Barnyardgrass damage rating (100=total damage to plant; 0=no damage to plant) ([10]; 250 g ai/ha): 80 | pest or weed control at 15.625 g/ha ([10]; Echinochloa crus-galli, pre-emergence, 312 h, 15.625 g ai/ha, read-out: Barnyardgrass damage rating (100=total damage to plant; 0=no damage to plant)): 0% | Velvetleaf damage rating [11, 16]: 10 | Velvetleaf damage rating (100=total damage to plant; 0=no damage to plant) ([11]; 250 g ai/ha): 50 | pest or weed control at 15.625 g/ha ([11]; Abutilon theophrasti, pre-emergence, 312 h, 15.625 g ai/ha, read-out: Velvetleaf damage rating (100=total damage to plant; 0=no damage to plant)): 0% | Corn damage rating (corn (Zea mays) [12]; [16]): 30 | Corn damage rating (100=total damage to plant; 0=no damage to plant) (corn (Zea mays) [12]; 250 g ai/ha): 80 | plant injury at 15.625 g/ha (corn (Zea mays) [12]; Zea mays, pre-emergence, 312 h, 15.625 g ai/ha, read-out: Corn damage rating (100=total damage to plant; 0=no damage to plant)): 0%
